We go through eleven compounds from US7132419B2, “Pharmaceutical compounds” (Xenova Limited, priority 2000, dated 2006).

By IC50 is commonly meant the concentration needed to halve the response being measured.

The test system of series [1] is Jurkat human leukaemia cell line (JLC). Description: Cytotoxicity, Jurkat leukaemia cell line JLC. The following applies: concentration required to give 50% cell kill. In kind it is cell-based. The procedure: (§1) The cytotoxicity of the compounds described herein was also measured using the Jurkat human leukaemia cell line (JLC) and also the amsacrine-resistant Jurkat human leukaemia cell line (JLA) and the doxorubicin-resistant Jurkat human leukaemia cell line (JLD). The cytotoxicity, as measured by the IC50 (concentration required to give 50% cell kill) in the JLA or JLD cell line divided by the cytotoxicity in the JLC cell line gives an indication of the degree to which a compound may be affected by atypical drug resistance and is termed the resistance factor (Rf) of the compound. The method used has been described previously (Finlay et al, Eur J. Cancer 32A, 708–714, 1996). Compounds were active in the range 1 nM to 5 μM.

The test system of series [2] is COR-L23 parental (COR-L23/P) human non-small cell lung carcinoma cell line. Put plainly: Cytotoxicity, COR-L23 parental cell line (SRB assay). To be noted: concentration required to give 50% cell kill, 5–6 days incubation. In kind it is cell-based. The procedure:
(§2) The cytotoxicity of the compounds described herein was also measured using the COR-L23 parental (COR-L23/P) human non-small cell lung carcinoma cell line and also the drug resistant human non-small cell lung carcinoma cell line COR-L23/R which overexpresses multidrug resistance associated protein (MRP). The cytotoxicity, as measured by the IC50 (concentration required to give 50% cell kill) in the L23/R cell line divided by the cytotoxicity in the L23/P cell line gives an indication of the degree to which a compound may be affected by MRP-dependant MDR and is termed the resistance factor (Rf) of the compound.
(§3) L23/P and L23/R cells were pipetted into 96-well tissue culture plates and then allowed to incubate at 37° C. for 4 h. […] The plates were incubated for 5–6 days before proliferation was assessed using the sulphurhodamine B (SRB) assay as described by Skehan et al, J Natl Cancer Inst 1990, 82, pp 1107–1112.
In general terms: The SRB assay estimates cell density from bound dye.

Series [3] concerns drug resistant human small cell lung carcinoma cell line H69/LX4 which overexpresses P-glycoprotein (Pgp). Put plainly: Cytotoxicity, drug resistant H69/LX4 cell line (AlamarBlue). To be noted: for IC50: concentration required to give 50% cell kill, 5–6 days incubation; for Rf (resistance factor): IC50 in H69/LX4 divided by IC50 in H69/P, Pgp-dependent MDR. It counts as cell-based. The procedure:
(§4) The cytotoxicity of compounds of formula (I) was measured using the H69 parental (H69/P) human small cell lung carcinoma cell line and the drug resistant human small cell lung carcinoma cell line H69/LX4 which overexpresses P-glycoprotein (Pgp). The cytotoxicity, as measured by the IC50 (concentration required to give 50% cell kill) in the H69/LX4 cell line divided by the cytotoxicity in the H69/P cell line gives an indication of the degree to which a compound is affected by Pgp-dependent MDR and is termed the resistance factor (Rf) of the compound.
(§5) H69/P and H69/LX4 cells were pipetted into 96-well tissue culture plates and then allowed to incubate at 37° C. for 4 h. […] The plates were incubated for 5–6 days before adding AlamarBlue to each well and returning the plates to the incubator for 5–8 h to allow colour development. The cell numbers in the plates at the end of this period were directly proportional to the absorbance measured at a wavelength of 570 nm (reference wavelength 600 nm).
(Alamar Blue is a resazurin reagent that responds to reducing activity.)

In series [4] the test system is H69 parental (H69/P) human small cell lung carcinoma cell line. Description: Cytotoxicity, H69 parental cell line (AlamarBlue). In kind it is cell-based. To be noted: concentration required to give 50% cell kill, 5–6 days incubation. The procedure:
as §4, §5

Series [5] relates to amsacrine-resistant Jurkat human leukaemia cell line (JLA). Put plainly: Cytotoxicity, amsacrine-resistant Jurkat cell line JLA. In kind it is cell-based. The following applies: for IC50: concentration required to give 50% cell kill; for Rf (JLA/JLC): IC50 in JLA divided by IC50 in JLC, atypical drug resistance. The procedure:
as §1

Series [6] deals with drug resistant human non-small cell lung carcinoma cell line COR-L23/R which overexpresses multidrug resistance associated protein (MRP). Put plainly: Cytotoxicity, drug resistant COR-L23/R cell line (SRB assay). It counts as cell-based. The following applies: for Rf (resistance factor): IC50 in L23/R divided by IC50 in L23/P, MRP-dependant MDR. The procedure:
as §2, §3

Test in series [7]: as above
It counts as cell-based, human. The following applies: Homo sapiens, COR-L23/R; concentration required to give 50% cell kill; 5–6 days incubation. The procedure: as §2, §3

Series [8] relates to doxorubicin-resistant Jurkat human leukaemia cell line (JLD). Put plainly: Cytotoxicity, doxorubicin-resistant Jurkat cell line JLD. In kind it is cell-based. The following applies: for IC50: concentration required to give 50% cell kill; for Rf (JLD/JLC): IC50 in JLD divided by IC50 in JLC, atypical drug resistance. The procedure: as §1
The target in the next series is T1, topoisomerase I (Homo sapiens, UniProt P11387).
T1 sequence (P11387 1-765): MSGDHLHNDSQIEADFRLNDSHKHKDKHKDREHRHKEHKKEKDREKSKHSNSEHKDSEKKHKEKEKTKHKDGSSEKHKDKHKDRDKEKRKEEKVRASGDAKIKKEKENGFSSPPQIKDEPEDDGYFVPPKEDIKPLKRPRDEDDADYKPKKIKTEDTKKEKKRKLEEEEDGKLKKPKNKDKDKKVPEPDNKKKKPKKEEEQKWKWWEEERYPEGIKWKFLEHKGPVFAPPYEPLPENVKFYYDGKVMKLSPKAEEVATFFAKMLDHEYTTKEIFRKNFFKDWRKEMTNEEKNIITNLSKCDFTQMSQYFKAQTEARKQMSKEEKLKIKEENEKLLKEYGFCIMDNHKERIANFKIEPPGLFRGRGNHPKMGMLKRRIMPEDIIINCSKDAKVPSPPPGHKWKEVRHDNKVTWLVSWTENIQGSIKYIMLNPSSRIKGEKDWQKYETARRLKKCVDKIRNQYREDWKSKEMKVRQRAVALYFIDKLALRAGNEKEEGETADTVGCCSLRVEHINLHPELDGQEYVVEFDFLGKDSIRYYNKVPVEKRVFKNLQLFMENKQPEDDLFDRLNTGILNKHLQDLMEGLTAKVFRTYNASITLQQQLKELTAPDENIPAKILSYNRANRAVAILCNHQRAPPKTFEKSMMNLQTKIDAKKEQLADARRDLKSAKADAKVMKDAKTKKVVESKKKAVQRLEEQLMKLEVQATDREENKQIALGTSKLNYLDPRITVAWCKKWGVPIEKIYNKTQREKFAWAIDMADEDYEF
Put plainly: Stabilisation of cleavable complexes, topoisomerase I. In kind it is biochemical. To be noted: range where an increase in cleavable complexes was observed relative to controls in the absence of drug. The text has this: (§6) Compounds were also studied for their ability to stabilize cleavable complexes in the presence of either topoisomerase I or II essentially as described previously (Finlay et al, Eur J. Cancer 32A, 708–714, 1996). Presence of cleavable complexes was indicated by an increase in the number and intensity of bands observed after electrophoresis and autoradiography. The results are expressed as the effective concentration range where an increase in cleavable complexes was observed relative to controls in the absence of drug.

The next series has as its system topoisomerase II. Description: Stabilisation of cleavable complexes, topoisomerase II. It counts as biochemical. The following applies: range where an increase in cleavable complexes was observed relative to controls in the absence of drug.
Excerpt: as §6

As for `COc1cccc2c1ccc1nc3cccc(C(=O)N[C@H](CO)CN(C)C)c3nc12` [Compound 81, 4-Methoxy-benzo[a]phenazine-11-carboxylic acid (2-dimethylamino-1-(S)-hydroxymethyl-ethyl)-amide], the IC50 in [1] (Homo sapiens, Jurkat) turned out to be 0.0087 µM; in series [2] (Homo sapiens, COR-L23), 0.004 µM; in series [3] (Homo sapiens), 0.025 µM; in series [4] (Homo sapiens), 0.02 µM; in [5] (Homo sapiens, Jurkat) it was 0.0092 µM; in series [7] it was 0.0124 µM. This compound also had an IC50 in [8] (Homo sapiens, Jurkat) of 0.0093 µM. The “Rf (resistance factor)” value in [3] was 1.2; in series [6] it was 3.1. Besides, the “Rf (JLA/JLC)” value in series [5] was 1.1. Further, the “Rf (JLD/JLC)” value in [8] amounted to 1.1.
Take `CN(C)CCNC(=O)c1cccc2nc3ccc4c(OCC#N)cccc4c3nc12` [Compound 11, 4-Cyanomethoxy-benzo[a]phenazine-11-carboxylic acid (2-dimethylamino-ethyl)-amide]: the IC50 stood at 0.0061 µM in series [2] (Homo sapiens, COR-L23); 0.024 µM in series [3] (Homo sapiens); 0.028 µM in [4] (Homo sapiens); 0.0177 µM in series [7]. For the same compound, the “Rf (resistance factor)” value amounted to 0.9 in series [3] and 2.9 in series [6].
`COc1cccc2c1ccc1nc3cccc(C(=O)NC(CO)CN(C)C)c3nc12` (stereo not drawn) [Compound 75, 4-Methoxy-benzo[a]phenazine-11-carboxylic acid (2-dimethylamino-1-hydroxymethyl-ethyl)-amide]: the IC50 in series [2] (Homo sapiens, COR-L23) was 0.013 µM; in series [3] (Homo sapiens), 0.028 µM; in series [4] (Homo sapiens) it was 0.023 µM; in series [7], 0.0172 µM. The “Rf (resistance factor)” value in series [3] is 1.2; in series [6], 1.3.
On to `COc1cccc2c1C(=O)c1c(O)c3c(c(O)c1C2=O)C[C@@](O)(C(=O)CO)C[C@@H]3O[C@H]1C[C@H](N)[C@H](O)[C@H](C)O1` [Doxorubicin, reference compound], for which the IC50 in [1] (Homo sapiens, Jurkat) was determined as 0.007 µM; in series [3] (Homo sapiens), 3.7 µM. In addition, the “Rf (resistance factor)” value in [3] amounted to 135; in [6], 16.1. The “Rf (JLA/JLC)” value in [5] is recorded as 3.7.
For `COc1cccc2c1ccc1nc3cccc(C(=O)N[C@@H](CN(C)C)C(C)C)c3nc12` [Compound 98, (R)-4-Methoxy-benzo[a]phenazine-11-carboxylic acid(1-dimethylaminomethyl-2-methyl-propyl)-amide], the IC50 was 0.0086 µM in [1]; 0.0096 µM in [2]; 0.02 µM in series [3]; 0.021 µM in series [4]; 0.018 µM in series [5]; 0.0088 µM in [6] (concentration required to give 50% cell kill, 5–6 days incubation). This compound returned an IC50 in series [8] of 0.014 µM. In addition, the “Rf (resistance factor)” value in series [3] amounted to 1; in series [6], 0.9. For the same compound, the “Rf (JLA/JLC)” value in [5] worked out at 2.1. Besides, the “Rf (JLD/JLC)” value in [8] stood at 1.6.
For the compound `CN(C)CCNC(=O)c1c(O)ccc2nc3ccc4c(O)cccc4c3nc12` [Compound 68, 4,10-Dihydroxy-benzo[a]phenazine-11-carboxylic acid (2-dimethylamino-ethyl)-amide], the IC50 was 0.0131 µM in series [2] (Homo sapiens, COR-L23); 0.025 µM in series [3] (Homo sapiens); 0.019 µM in series [4] (Homo sapiens); 0.0444 µM in series [7]. For the same compound, the “Rf (resistance factor)” value in series [3] was found to be 1.3; in series [6] it was 3.4.
With `CN(C)CCNC(=O)c1cccc2nc3ccc4cc(O)ccc4c3nc12` [Compound 2, 3-Hydroxy-benzo[a]phenazine-11-carboxylic acid (2-dimethylamino-ethyl)-amide], the IC50 in series [1] (Homo sapiens, Jurkat) amounted to 0.037 µM; in [5] (Homo sapiens, Jurkat), 0.096 µM; in series [8] (Homo sapiens, Jurkat), 0.107 µM. For the same compound, the “Rf (JLA/JLC)” value in series [5] stood at 2.6. Further, in series [8], the “Rf (JLD/JLC)” value is on record as 2.9.
For the compound `COc1cc(C(=O)NCCN(C)C)c2nc3c(ccc4c(OC)cccc43)nc2c1` [Compound 94, 4,9-Dimethoxy-benzo[a]phenazine-11-carboxylic acid (2-dimethylamino-ethyl)-amide], the IC50 in series [1] (Homo sapiens, Jurkat) was 0.0092 µM; in series [2] (Homo sapiens, COR-L23) it was 0.0057 µM; in [3] (Homo sapiens), 0.025 µM; in series [4] (Homo sapiens), 0.019 µM; in series [5] (Homo sapiens, Jurkat), 0.016 µM; in series [7] it was 0.0038 µM. The IC50 in series [8] (Homo sapiens, Jurkat) was found to be 0.014 µM. Also, the “Rf (resistance factor)” value in series [3] is reported as 1.3; in [6], 0.7. Also, in series [5], the “Rf (JLA/JLC)” value came out at 1.8. Further, in series [8], the “Rf (JLD/JLC)” value is 1.6.
For the compound `COc1cccc2c1ccc1nc3cccc(C(=O)NC(C)(CCO)N(C)C)c3nc12` (stereo not drawn) [Compound 87, 4-Methoxy-benzo[a]phenazine-11-carboxylic acid [1-dimethylamino-1-(2-hydroxyethyl)]-ethylamide], the IC50 in series [1] stood at 0.016 µM. Also, in series [5], the “Rf (JLA/JLC)” value was 1.0 and the IC50 was found to be 0.016 µM. In [8], the “Rf (JLD/JLC)” value is reported as 1.0 and the IC50 was determined as 0.017 µM.
As for `CC[C@@]1(O)C(=O)OCc2c1cc1n(c2=O)Cc2cc3c(CN(C)C)c(O)ccc3nc2-1` [Topotecan, reference compound], the “Rf (resistance factor)” value in series [3] is listed as 3.9; in series [6], 1.5.
For the compound `COc1cccc2c1ccc1nc3cccc(C(=O)NC(C)CN(C)C)c3nc12` (stereo not drawn) [Compound 35, 4-Methoxy-benzo[a]phenazine-11-carboxylic acid (2-dimethylamino-1-methyl-ethyl)-amide], the IC50 in series [1] (Homo sapiens, Jurkat) was determined as 0.028 µM; in [5] (Homo sapiens, Jurkat), 0.019 µM; in series [8] (Homo sapiens, Jurkat), 0.025 µM. Besides, at topoisomerase I, the “Effective concentration range, Topoisomerase I” value was in the range of 0.03 to 1.0 µM. For the same compound, in the series on topoisomerase II, the “Effective concentration range, Topoisomerase II” value was in the range of 0.03 to 1.0 µM. Besides, the “Rf (JLA/JLC)” value in series [5] was determined as 0.7. The “Rf (JLD/JLC)” value in series [8] amounted to 0.9.
